Measurements published in patent US20210139857A1, “Intestinal organoid co-culture systems and methods for treating or preventing a disease or disorder associated with immune response-mediated tissue injury” (NEW YORK UNIVERSITY, priority 2019, published 2021).

How the values were obtained:
[1] = system: ATG16L1^T300A homozygous human organoids; test: human organoid viability assay, TNFα-induced death; format: cell-based; details: 50 ng/ml TNFα, 48 hours; 100 nM Ruxolitinib, 1 μM GSK547, 20 μM Necrostatin-1s, 2 μM NSA; P<0.0001
Experimental: N=14 (Nonrisk) and 6 (T300A/T300A). Statistical significance was validated with Fisher's exact test. FIG. 13B depicts a combined organoid viability in (A). N=14 (Non-risk) and 6 (T300A/T300A). FIG. 13C and FIG. 13D depict representative images (FIG. 13C) and viability (FIG. 13D) of human small intestinal organoids stimulated with or without 50 ng/ml TNFα, 100 nM Ruxolitinib, 1 μM GSK547, 20 μM Necrostatin-1s (Nec-1s), and 2 μM necrosulfonamide (NSA) for 48 hours. Scale bars represent 400 μm. Data points in FIG. 13B represent an average viability of individual organoids in FIG. 12, and data points in FIG. […] are mean of technical replicates. At least 2 independent experiments were performed. ***p<0.001, ****p<0.0001.
Mouse small intestinal and colonic crypts were isolated and cultured. Crypts of proximal small intestine were counted and embedded in Matrigel at 10,000 crypts/ml and cultured in DMEM/F-12 in the presence of 100 IU penicillin and 100 μg/ml streptomycin (Corning), 125 μg/ml gentamicin (Gibco), 2 mM l-glutamine (Corning), 20 ng/ml mEGF (PeproTech), 100 ng/ml mNoggin (R&D Systems), and 500 ng/ml mR-Spondin 1 (R&D Systems), hereafter referred as ENR medium. Crypts of colon were counted and embedded in Matrigel and cultured in the ENR medium plus 50 ng/ml Wnt-3a, 1×B-27, and N-2 supplement (Thermo Fisher Scientific). Surface area of organoids was quantified with Image J. For organoid viability assays, crypts were embedded in 10 μl of Matrigel at 5,000 crypts/ml and cultured in 96-well culture plate in triplicate with or without 20 ng/ml mTNFα (PeproTech) and 100 nM Ruxolitinib (Selleckchem). Percent viable organoids was determined by daily quantification of the number of intact organoids. Opaque organoids with condensed structures or those that have lost adherence were excluded. Dead organoids were marked by staining with 100 μg/ml propidium iodide (SIGMA-ALDRICH). Human intestinal organoids were cultured (Neil et al., 2019, Nat Microbiol 4, 1737-1749). […]

Atg16L1^ΔIEC mice = test: preclinical GVHD model: allo-HCT after chemotherapy conditioning, GSK547 or control chow; format: in vivo, mouse; details: GSK547 chow started 10 days before allo-HCT, P<0.05
Text: FIG. 1F depicts the survival of chemotherapy-pretreated Atg16L1^f/f (f/f) and Atg16L1^ΔIEC (ΔIEC) mice which received GSK547 or control chow and were transplanted with 5×10^6 T cell-depleted BM cells with 4×10^6 splenic T cells from donor LP/J mice. n=8 (f/f, control), 8 (ΔIEC, control), 8 (f/f, GSK547), and 8 (ΔIEC, GSK547). GSK547 was started 10 days before allo-HCT, and continued until the end of the study. FIG. 1G depicts the clinical disease scores evaluated every 7 days after allo-HCT. Data points in FIG. 1B, FIG. 1D, and FIG. 1F represent individual mice, and data points in FIG. 1C, FIG. 1E, and FIG. 1G are mean of clinical scores of viable mice. Bars represent means±SEM, and survival data in FIG. 1B, FIG. 1D, and FIG. 1F are combined results of 2 experiments performed independently. FIG. 1B, FIG. 1D, and FIG. 1F were analyzed with the Mantel-Cox log rank test.
In brief, female B6 background mice were intraperitoneally injected with busulfan (20 mg/kg/day) for 5 days, followed by cyclophosphamide (100 mg/kg/day) for 3 days. Days −2 and −1 were rest days. […] Recipient mice were monitored daily for survival and weekly quantified for clinical GVHD for 5 clinical parameters (weight loss, hunched posture, activity, fur ruffling, and skin lesions) on a scale from 0 to 2. […]

SMILES	viability of human organoids, TNFα-induced death [1]	survival after allo-HCT (Atg16L1^ΔIEC mice; BM + T cells from LP/J donors)	clinical GVHD score after allo-HCT (Atg16L1^ΔIEC mice; scored every 7 days)
COc1nccnc1NS(=O)(=O)c1ccc(NC(=O)/C=C/c2ccc([N+](=O)[O-])s2)cc1 [Necrosulfonamide]	significantly protected		
N#Cc1cc(N2CCC(C(=O)N3N=CC[C@H]3c3cc(F)cc(F)c3)CC2)ncn1 [GSK547]	significantly protected	significantly better survival	significantly better
CN1C(=O)NC(Cc2c[nH]c3c(Cl)cccc23)C1=O (centres unmarked) [Necrostatin-1s]	significantly protected		
